Measurements published in US11338007B2, “Combination formulation of three antiviral compounds” (priority 2016, dated 2022).

Tests used:
[1] = Food effect (high calorie/high-fat meals) on pharmacokinetics in human subjects (Table 28); format: in vivo; settings: tablets 400/100/100 mg; high calorie/high-fat meal
Method: The effect of food (high calorie/high-fat meals) on the pharmacokinetics of sofosbuvir/velpatasvir SSD/voxilaprevir SSD tablets (400/100/100 mg). […] As a result, sofosbuvir/velpatasvir SSD/voxilaprevir SSD tablets are administered with food.

[2] = Stability of clinical film-coated tablets Batches A-D (Tables 14, 15A-15C); format: physicochemical; settings: for LS (%): tablets Batch C, 1 g desiccant
Method: FIGS. 10-12 depict additional dissolution profiles for the sofosbuvir/velpatasvir SSD/voxilaprevir SSD tablets having the formulation described in Table 13 and which were used in phase 1, 2, and 3 clinical studies, where the dissolution testing was conducted at pH 5.0 acetate buffer containing 2.0% w/v polysorbate 80. Four batches of the sofosbuvir/velpatasvir SSD/voxilaprevir SSD tablets were tested, with Batch A manufactured at 100 kg and Batches B, C and D manufactured at 145 kg. All other aspects of the formulation and manufacturing process were otherwise equivalent. The four batches were packed in the same commercial configuration: 28 count, 100 mL HPDE bottle with 1 g silica gel desiccant canister and a polyester fiber coil. […] Moreover, for Batch A, the amount dissolved at 30 min remained between 98 and 100% for sofosbuvir, between 90 and 92% for velpatasvir SSD, and between 89 and 93% for voxilaprevir SSD. […] For Batch D, the amount dissolved at 30 min remained at 100% for sofosbuvir, between 90 and 91% for velpatasvir SSD, and between 89 and 91% for voxilaprevir SSD. Release of velpatasvir SSD and voxilaprevir SSD from the sofosbuvir/velpatasvir SSD/voxilaprevir SSD tablets associated with all four Batches was complete after 60 minutes.
Stability data associated with the sofosbuvir/velpatasvir SSD/voxilaprevir SSD film-coated tablets (Batch A) are presented in Table 14. […] No upward trend in the content of degradation products was observed over the time period studied. The water content for packaged tablets remained between 1.9 and 2.3% through 6 months storage at 40° C./75% RH, 30° C./75% RH, and 25° C./60% RH. As summarized in Table 14, the packaged tablets (Batch A) were physically stable with no change in XRPD patterns after 6 months storage.
Stability data associated with the sofosbuvir/velpatasvir SSD/voxilaprevir SSD film-coated tablets (Batches B-D) are presented in Tables 15A-15C, respectively. […] No upward trend in the content of degradation products was observed over the time period studied. The water content for packaged tablets remained between 1.8 and 2.3% through 6 months storage at 40° C./75% RH, 30° C./75% RH, and 25° C./60% RH. The packaged tablets were physically stable with no change in XRPD patterns after 6 months storage.
For Batch D, the packaged tablets had acceptable chemical stability for up to 1 month under all conditions with total impurities/degradation products of sofosbuvir remaining at 0.0%, velpatasvir SSD remaining between 0.7 and 0.8%, and voxilaprevir SSD remaining at 0.0%. No upward trend in the content of degradation products was observed over the time period studied. The water content for packaged tablets remained between 1.9 and 2.3% through 1 month storage at 40° C./75% RH, 30° C./75% RH, and 25° C./60% RH.

[3] = tested on: HCV RNA; assay: Emax PK/PD modeling of sofosbuvir dose (HCV RNA change from baseline); format: in vivo, human; settings: mean major metabolite AUCtau for 400 mg dose
Method: The sofosbuvir dose selected for the tablet formulation is 400 mg once daily. Support for the 400 mg sofosbuvir dose can be derived from Emax PK/PD modeling with early virological and human exposure data which also supports the selection of a 400 mg sofosbuvir dose over others tested.
The mean sofosbuvir major metabolite AUCtau for the 400 mg sofosbuvir dose is associated with approximately 77% of the maximal HCV RNA change from baseline achievable as determined by this model, a value which is on the cusp of the plateau of the exposure-response sigmoidal curve. In a sigmoidal Emax model, there is a relatively linear exposure-response relationship in the 20 to 80% maximal effect range. Therefore, given that sofosbuvir exposure with 200 mg tablets appears dose-proportional with single doses up to 1200 mg, doses below 400 mg are expected to yield considerable reductions in the magnitude of HCV RNA change from baseline.

[4] = Batch A, 25° C./60% RH, 3 months
[5] = Batch A, 25° C./60% RH, 6 months
[6] = Batch A, 30° C./75% RH, 3 months
[7] = Batch A, 30° C./75% RH, 6 months
[8] = Batch A, 40° C./75% RH, 1 month
[9] = Batch A, 40° C./75% RH, 3 months
[10] = Batch A, 40° C./75% RH, 6 months

CC(C)OC(=O)C(C)N[P@](=O)(OC[C@H]1O[C@@H](n2ccc(=O)[nH]c2=O)[C@](C)(F)[C@@H]1O)Oc1ccccc1 (stereo in doubt) [sofosbuvir, (S)-isopropyl 2-(((S)-(((2R,3R,4R,5R)-5-(2,4-dioxo-3,4-dihydropyrimidin-1(2H)-yl)-4-fluoro-3-hydroxy-4-methyltetrahydrofuran-2-yl)methoxy)(phenoxy)phosphoryl)amino)propanoate]
effect of food on plasma exposure [1]: does not substantially alter | LS [2, 4]: 102.7% | Total Imp./Deg. [2, 4]: 0.0% | LS [2, 5]: 99.0% | Total Imp./Deg. [2, 5]: 0.0% | LS [2, 6]: 100.3% | Total Imp./Deg. [2, 6]: 0.0% | LS [2, 7]: 98.1% | Total Imp./Deg. [2, 7]: 0.0% | LS [2, 8]: 99.7% | Total Imp./Deg. [2, 8]: 0.0% | LS [2, 9]: 101.7% | Total Imp./Deg. [2, 9]: 0.0% | LS [2, 10]: 98.7% | Total Imp./Deg. [2, 10]: 0.0% | LS ([2]; Batch A, Initial): 99.0% | Total Imp./Deg. ([2]; Batch A, Initial): 0.0% | total impurities/degradation products ([2]; Batch A, up to 6 months under all conditions): 0.0% | LS ([2]; Batch B, 25° C./60% RH, 3 months): 100.7% | LS ([2]; Batch B, 25° C./60% RH, 6 months): 100.1% | LS ([2]; Batch B, 30° C./75% RH, 3 months): 98.4% | LS ([2]; Batch B, 30° C./75% RH, 6 months): 98.8% | LS ([2]; Batch B, 40° C./75% RH, 1 month): 101.7% | LS ([2]; Batch B, 40° C./75% RH, 3 months): 99.8% | LS ([2]; Batch B, 40° C./75% RH, 6 months): 99.0% | LS ([2]; Batch B, Initial): 100.0% | Total Imp./Deg. ([2]; Batch B, Initial): 0.0% | LS ([2]; Batch D, 40° C./75% RH, 1 month): 99.7% | LS ([2]; Batch D, Initial): 99.8% | total impurities/degradation products ([2]; Batch D, up to 1 month under all conditions): 0.0% | total impurities/degradation products ([2]; Batches B and C, up to 6 months under all conditions): 0.0% | LS (%) ([2]; 25° C./60% RH, 3 months): 98.9% | LS (%) ([2]; 25° C./60% RH, 6 months): 98.8% | LS (%) ([2]; 30° C./75% RH, 3 months): 100.1% | LS (%) ([2]; 30° C./75% RH, 6 months): 99.1% | LS (%) ([2]; 40° C./75% RH, 1 month): 101.1% | LS (%) ([2]; 40° C./75% RH, 3 months): 99.4% | LS (%) ([2]; 40° C./75% RH, 6 months): 98.9% | LS (%) ([2]; Initial, time 0): 99.1% | maximal HCV RNA change from baseline achievable (Emax model) [3]: approximately 77%
